Experiments:
HUVEC = assay: Antiangiogenic activity in HUVEC cells assessed as inhibition of VEGF-induced cell proliferation at 20 uM incubated for 48 hrs by MTT assay relative to control; assay type: functional; conditions: Homo sapiens, values are per cent of control
MDA-MB-468 = assay: Cytotoxicity against human MDA-MB-468 cells assessed as inhibition of cell growth incubated for 72 hrs by MTS assay; assay type: functional, cell-based; conditions: MDA-MB-468, 72 h
[1] = Cytotoxicity against HEK293 cells assessed as inhibition of cell growth incubated for 72 hrs by MTS assay; assay type: toxicity, cell-based; conditions: human
[2] = Selectivity index, ratio of IC50 for cytotoxicity against HEK293 cells to IC50 for cytotoxicity against human MDA-MB-468 cells; assay type: toxicity, cell-based; conditions: HEK293 cells versus MDA-MB-468 cells, read-out: Ratio IC50

Row | Compound | growth, % of control at 20 µM (HUVEC) | IC50 (MDA-MB-468) | IC50 at 72 h [1] | selectivity ratio [2]
1 | O=S1(=O)N=C(NCc2ccncc2)Nc2ccc(Cl)cc21 | 66.8% | – | – | –
2 | CSC1=NS(=O)(=O)c2ccc(Cl)cc2N1 | 20.9% | – | – | –
3 | Cc1ccccc1CNC1=NS(=O)(=O)c2ccc(Cl)cc2N1 | 112% | – | – | –
4 | Cc1ccc(CNC2=NS(=O)(=O)c3cc(Cl)ccc3N2)cc1 | 119% | 43.1 µM | – | –
5 | O=S1(=O)N=C(NCCCc2ccccc2)Nc2ccc(Br)cc21 | 28.6% | – | – | –
6 | Cc1ccccc1CNC1=NS(=O)(=O)c2cc(Cl)ccc2N1 | 117% | – | – | –
7 | O=S1(=O)N=C(NCc2ccc(OC(F)(F)F)cc2)Nc2ccc(Cl)cc21 | 120% | 43.4 µM | – | –
8 | CCNC1=NS(=O)(=O)c2ccccc2N1 | 88.4% | – | – | –
9 | O=S1(=O)N=C(NCCCc2ccccc2)Nc2cc(Cl)ccc21 | 175% | 91.9 µM | 111 µM | 1.2
10 | COc1ccccc1CNC1=NS(=O)(=O)c2cc(F)ccc2N1 | 29.4% | – | – | –
11 | COc1ccc(CNC2=NS(=O)(=O)c3ccc(Cl)cc3N2)cc1 | 132% | – | – | –
12 | O=S1(=O)N=C(NCc2ccc(C(F)(F)F)cc2)Nc2cc(Cl)ccc21 | 8.6% | – | – | –
13 | CC(NC1=NS(=O)(=O)c2cc(Cl)ccc2N1)c1ccccc1 (stereo unspecified) | 53.7% | – | – | –
14 | O=S1(=O)N=C(NCCc2ccccc2)Nc2cc(Cl)ccc21 | 197% | – | – | –
15 | O=S1(=O)N=C(NCc2ccc(OC(F)(F)F)cc2)Nc2ccccc21 | 88.6% | 71 µM | – | –
16 | CC(NC1=NS(=O)(=O)c2ccc(Cl)cc2N1)c1ccccc1 (stereo unspecified) | 40.5% | 91.1 µM | – | –
17 | O=S1(=O)N=C(NCc2ccc(F)cc2)Nc2ccc(Cl)cc21 | 70.4% | – | – | –
18 | COc1cccc(CCNC2=NS(=O)(=O)c3ccc(Cl)cc3N2)c1 | 103% | – | – | –
19 | O=S1(=O)N=C(NCc2ccc(F)cc2F)Nc2ccc(Br)cc21 | 127% | – | – | –
20 | O=S1(=O)NC(=S)Nc2ccc(F)cc21 | 50.1% | – | – | –

Row | Compound | growth, % of control at 20 µM (HUVEC) | IC50 (MDA-MB-468) | IC50 at 72 h [1] | selectivity ratio [2]
21 | Cc1cccc(CNC2=NS(=O)(=O)c3ccc(Cl)cc3N2)c1 | 125% | – | – | –
22 | O=S1(=O)N=C(NCCCCc2ccccc2)Nc2ccc(Cl)cc21 | 116% | – | 23.4 µM | –
23 | O=S1(=O)N=C(NCCCc2ccccc2)Nc2ccccc21 | 53.6% | – | – | –
24 | O=S1(=O)N=C(NCCc2ccccc2)Nc2ccc(Br)cc21 | 52.7% | – | – | –
25 | COc1cccc(CNC2=NS(=O)(=O)c3ccc(Cl)cc3N2)c1 | 129% | – | – | –
26 | O=S1(=O)N=C(NCc2ccccc2OC(F)(F)F)Nc2cc(Cl)ccc21 | 124% | 14.9 µM | 30.5 µM | 2
27 | O=S1(=O)N=C(NCCCc2ccccc2)Nc2ccc(Cl)cc21 | 91.6% | 56.6 µM | 30.9 µM | 0.5
28 | CSC1=NS(=O)(=O)c2cc(F)ccc2N1C | 70.1% | – | – | –
29 | O=S1(=O)N=C(NCCc2ccccc2)Nc2ccc(Cl)cc21 | 81.7% | – | – | –
30 | COc1ccccc1CNC1=NS(=O)(=O)c2ccc(Cl)cc2N1 | 83.9% | – | – | –
31 | O=S1(=O)N=C(NCc2ccccc2)Nc2ccc(Cl)cc21 | 122% | – | – | –
32 | CCCCCC(=O)c1c(O)nc(OC)c(OC)c1O | – | 6.71 µM | 25.9 µM | 3.9
33 | CC(NC1=NS(=O)(=O)c2cc(Br)ccc2N1)c1ccccc1 (stereo unspecified) | 104% | – | – | –
34 | O=S1(=O)N=C(NCCc2c[nH]c3ccccc23)Nc2cc(Cl)ccc21 | 34.1% | – | – | –
35 | O=S1(=O)N=C(NC2CCCC2)Nc2cc(Cl)ccc21 | 174% | 148 µM | – | –
36 | Cc1ccc(CNC2=NS(=O)(=O)c3ccc(Cl)cc3N2)cc1 | 146% | – | – | –
37 | CC1=Nc2ccc(Cl)cc2S(=O)(=O)N1 [DIAZOXIDE] | 15.2% | – | – | –
38 | CC(C)C(C)NC1=NS(=O)(=O)c2cc(F)ccc2N1 (stereo unspecified) | 76.4% | – | – | –
39 | O=S1(=O)N=C(NCCc2c[nH]c3ccccc23)Nc2ccc(F)cc21 | 41.8% | – | – | –

From ChEMBL document CHEMBL5126581, “Chlorinated benzothiadiazines inhibit angiogenesis through suppression of VEGFR2 phosphorylation” (Bioorg Med Chem, 2022)
